Earlier results, collected in patent US20240182984A1, “METHODS FOR ASSESSING PROLIFERATION AND ANTI-FOLATE THERAPEUTIC RESPONSE” (priority 2021, published 2024).

System: bronchioid subtype of LUAD
Details: compared with other LUAD subtypes

Structure (SMILES): Nc1nc2[nH]cc(CCc3ccc(C(=O)N[C@@H](CCC(=O)O)C(=O)O)cc3)c2c(=O)[nH]1 [pemetrexed]
- sensitivity of the bronchioid subtype of LUAD (Group 1): more sensitive
